Source: ChEMBL document CHEMBL4270560, “Novel curcumin analogue hybrids: Synthesis and anticancer activity” (Eur J Med Chem, 2018)
Activity calls are given as the source filed them. No cut-off for these calls is given here.

Columns and labels:
[1] = system: SGC-7901; experiment: Antiproliferative activity against human SGC7901 cells after 48 hrs by MTT assay; assay type: functional, cell-based; conditions: SGC-7901, 48 h
[2] = system: MGC-803; experiment: Antiproliferative activity against human MGC803 cells after 48 hrs by MTT assay; assay type: functional, cell-based; conditions: MGC-803, 48 h
[3] = system: SGC-7901; experiment: Cell cycle arrest in human SGC7901 cells assessed as accumulation at G1 phase after 48 hrs by propidium iodide staining based flow cytometric analysis; assay type: functional
[4] = system: SGC-7901; experiment: Cell cycle arrest in human SGC7901 cells assessed as accumulation at G2 phase at 600 nM after 48 hrs by propidium iodide staining based flow cytometric analysis (reference value: 18.77%); assay type: functional
[5] = system: SGC-7901; experiment: Cell cycle arrest in human SGC7901 cells assessed as accumulation at S phase at 600 nM after 48 hrs by propidium iodide staining based flow cytometric analysis (reference value: 33.30%); assay type: functional
[6] = system: SGC-7901; experiment: Cell cycle arrest in human SGC7901 cells assessed as accumulation at G2 phase at 800 nM after 48 hrs by propidium iodide staining based flow cytometric analysis (reference value: 18.77%); assay type: functional
[7] = system: SGC-7901; experiment: Cell cycle arrest in human SGC7901 cells assessed as accumulation at S phase at 800 nM after 48 hrs by propidium iodide staining based flow cytometric analysis (reference value: 33.30%); assay type: functional
[8] = system: SGC-7901; experiment: Cell cycle arrest in human SGC7901 cells assessed as accumulation at G2 phase at 1000 nM after 48 hrs by propidium iodide staining based flow cytometric analysis (reference value: 18.77%); assay type: functional
[9] = system: SGC-7901; experiment: Cell cycle arrest in human SGC7901 cells assessed as accumulation at S phase at 1000 nM after 48 hrs by propidium iodide staining based flow cytometric analysis (reference value: 33.30%); assay type: functional
[10] = target: T1, Thioredoxin reductase (Homo sapiens) (UniProt Q16881+Q9NNW7+Q86VQ6); experiment: Inhibition of TrxR in human SGC7901 cells assessed as induction of intracellular ROS generation at 800 to 1000 nM after 5 hrs in presence of NAC by DCFH-DA staining based flow cytometric analysis; assay type: cell-based
[11] = system: SGC-7901; experiment: Induction of mitochondrial membrane depolarization in human SGC7901 cells assessed as cells with intact mitochondrial membrane potential at 800 nM after 48 hrs by JC-1 staining based flow cytometric analysis (reference value: 87.3%); assay type: functional
[12] = system: SGC-7901; experiment: Induction of mitochondrial membrane depolarization in human SGC7901 cells assessed as cells with mitochondrial membrane potential loss at 1200 nM after 48 hrs by JC-1 staining based flow cytometric analysis (reference value: 1.65 to 9.29%); assay type: functional
[13] = system: SGC-7901; experiment: Induction of mitochondrial membrane depolarization in human SGC7901 cells assessed as cells with mitochondrial membrane potential loss at 1000 nM after 48 hrs in presence of NAC by JC-1 staining based flow cytometric analysis (reference value: 1.65%); assay type: functional
[14] = system: SGC-7901; experiment: Induction of mitochondrial membrane depolarization in human SGC7901 cells assessed as cells with intact mitochondrial membrane potential at 1000 nM after 48 hrs in presence of NAC by JC-1 staining based flow cytometric analysis (reference value: 98%); assay type: functional
[15] = system: SGC-7901; experiment: Induction of mitochondrial membrane depolarization in human SGC7901 cells assessed as cells with mitochondrial membrane potential loss at 1200 nM after 48 hrs in presence of NAC by JC-1 staining based flow cytometric analysis (reference value: 1.65%); assay type: functional
[16] = system: SGC-7901; experiment: Induction of apoptosis in human SGC7901 cells assessed as late apoptotic cells at 600 nM after 48 hrs by Annexin V-FITC/propidium iodide staining based flow cytometric analysis (reference value: 1.73%); assay type: functional
[17] = system: SGC-7901; experiment: Induction of apoptosis in human SGC7901 cells assessed as viable cells at 600 nM after 48 hrs by Annexin V-FITC/propidium iodide staining based flow cytometric analysis (reference value: 95.9%); assay type: functional; conditions: SGC-7901, 48 h, read-out: Activity
[18] = system: SGC-7901; experiment: Induction of apoptosis in human SGC7901 cells assessed as early apoptotic cells at 800 nM after 48 hrs by Annexin V-FITC/propidium iodide staining based flow cytometric analysis (reference value: 2.30%); assay type: functional
[19] = system: SGC-7901; experiment: Induction of apoptosis in human SGC7901 cells assessed as late apoptotic cells at 800 nM after 48 hrs by Annexin V-FITC/propidium iodide staining based flow cytometric analysis (reference value: 1.73%); assay type: functional
[20] = system: SGC-7901; experiment: Induction of apoptosis in human SGC7901 cells assessed as viable cells at 800 nM after 48 hrs by Annexin V-FITC/propidium iodide staining based flow cytometric analysis (reference value: 95.9%); assay type: functional; conditions: SGC-7901, 48 h, read-out: Activity
[21] = system: SGC-7901; experiment: Induction of apoptosis in human SGC7901 cells assessed as late apoptotic cells at 1000 nM after 48 hrs by Annexin V-FITC/propidium iodide staining based flow cytometric analysis (reference value: 1.73 to 2.85%); assay type: functional
[22] = system: SGC-7901; experiment: Induction of apoptosis in human SGC7901 cells assessed as viable cells at 1000 nM after 48 hrs by Annexin V-FITC/propidium iodide staining based flow cytometric analysis (reference value: 95.9 to 96%); assay type: functional; conditions: SGC-7901, 48 h, read-out: Activity
[23] = system: SGC-7901; experiment: Induction of apoptosis in human SGC7901 cells assessed as early apoptotic cells at 1200 nM after 48 hrs by Annexin V-FITC/propidium iodide staining based flow cytometric analysis (reference value: 0.851 to 2.30%); assay type: functional
[24] = system: SGC-7901; experiment: Induction of apoptosis in human SGC7901 cells assessed as late apoptotic cells at 1200 nM after 48 hrs by Annexin V-FITC/propidium iodide staining based flow cytometric analysis (reference value: 1.73 to 2.85%); assay type: functional
[25] = system: SGC-7901; experiment: Induction of apoptosis in human SGC7901 cells assessed as necrotic cells at 1200 nM after 48 hrs by Annexin V-FITC/propidium iodide staining based flow cytometric analysis (reference value: 0.052 to 0.304%); assay type: functional
[26] = system: SGC-7901; experiment: Induction of apoptosis in human SGC7901 cells assessed as early apoptotic cells at 1000 nM after 48 hrs in presence of NAC by Annexin V-FITC/propidium iodide staining based flow cytometric analysis (reference value: 0.851%); assay type: functional
[27] = system: SGC-7901; experiment: Induction of apoptosis in human SGC7901 cells assessed as late apoptotic cells at 1000 nM after 48 hrs in presence of NAC by Annexin V-FITC/propidium iodide staining based flow cytometric analysis (reference value: 2.85%); assay type: functional
[28] = target: T1, Thioredoxin reductase (Homo sapiens); experiment: Inhibition of TrxR in human SGC7901 cells assessed as JNK phosphorylation at 600 to 1200 nM after 48 hrs by Western blot analysis; assay type: cell-based
[29] = system: SGC-7901; experiment: Induction of apoptosis in human SGC7901 cells assessed as decrease in cyclin D1 level after 48 hrs by Western blot analysis; assay type: functional, cell-based
[30] = target: T1, Thioredoxin reductase (Homo sapiens); experiment: Inhibition of TrxR in human SGC7901 cells assessed as JNK phosphorylation at 1200 nM after 48 hrs in presence of NAC by Western blot analysis; assay type: cell-based
[31] = target: T1, Thioredoxin reductase (Homo sapiens); experiment: Inhibition of TrxR in human SGC7901 cells assessed as p38 phosphorylation at 1200 nM after 48 hrs in presence of NAC by Western blot analysis; assay type: cell-based
[32] = system: SGC-7901; experiment: Induction of apoptosis in human SGC7901 cells assessed as increase in Bax to Bcl-2 ratio level at 1200 nM after 48 hrs in presence of NAC by Western blot analysis; assay type: functional, cell-based

T1 sequence (Q16881 whole entry, looked up): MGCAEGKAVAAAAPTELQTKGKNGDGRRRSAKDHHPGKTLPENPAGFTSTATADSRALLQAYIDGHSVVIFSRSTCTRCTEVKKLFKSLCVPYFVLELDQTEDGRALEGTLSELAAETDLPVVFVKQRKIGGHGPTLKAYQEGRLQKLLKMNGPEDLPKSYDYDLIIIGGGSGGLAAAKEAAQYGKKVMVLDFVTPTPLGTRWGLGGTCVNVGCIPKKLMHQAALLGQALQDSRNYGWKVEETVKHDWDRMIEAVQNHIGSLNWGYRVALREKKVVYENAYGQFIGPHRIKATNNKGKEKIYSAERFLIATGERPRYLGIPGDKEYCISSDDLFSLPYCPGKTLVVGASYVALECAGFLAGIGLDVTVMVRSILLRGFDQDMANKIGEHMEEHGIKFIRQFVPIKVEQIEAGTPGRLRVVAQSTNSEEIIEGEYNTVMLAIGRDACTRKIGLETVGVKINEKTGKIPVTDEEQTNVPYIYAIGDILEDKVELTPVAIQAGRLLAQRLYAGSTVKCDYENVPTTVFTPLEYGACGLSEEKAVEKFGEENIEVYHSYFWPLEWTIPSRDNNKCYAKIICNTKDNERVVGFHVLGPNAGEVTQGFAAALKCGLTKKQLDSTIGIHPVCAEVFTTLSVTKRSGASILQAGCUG
T1 sequence (Q86VQ6 whole entry, looked up): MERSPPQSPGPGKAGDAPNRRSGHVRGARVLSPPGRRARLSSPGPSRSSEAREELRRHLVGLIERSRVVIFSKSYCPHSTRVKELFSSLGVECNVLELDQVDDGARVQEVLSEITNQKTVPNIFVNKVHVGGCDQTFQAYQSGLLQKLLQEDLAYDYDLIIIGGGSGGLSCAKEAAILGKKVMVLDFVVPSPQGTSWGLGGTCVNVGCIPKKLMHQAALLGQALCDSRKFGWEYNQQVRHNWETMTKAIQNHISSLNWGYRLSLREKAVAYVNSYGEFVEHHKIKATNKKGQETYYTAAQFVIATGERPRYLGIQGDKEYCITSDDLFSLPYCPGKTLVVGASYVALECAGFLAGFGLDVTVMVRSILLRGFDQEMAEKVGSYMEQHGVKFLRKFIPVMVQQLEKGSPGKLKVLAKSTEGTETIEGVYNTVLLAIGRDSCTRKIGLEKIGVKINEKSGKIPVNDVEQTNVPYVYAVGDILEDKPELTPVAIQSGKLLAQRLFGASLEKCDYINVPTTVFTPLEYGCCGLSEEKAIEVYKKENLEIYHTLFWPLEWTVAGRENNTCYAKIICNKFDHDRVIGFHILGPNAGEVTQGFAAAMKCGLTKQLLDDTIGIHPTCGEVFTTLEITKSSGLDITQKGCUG
T1 sequence (Q9NNW7 whole entry, looked up): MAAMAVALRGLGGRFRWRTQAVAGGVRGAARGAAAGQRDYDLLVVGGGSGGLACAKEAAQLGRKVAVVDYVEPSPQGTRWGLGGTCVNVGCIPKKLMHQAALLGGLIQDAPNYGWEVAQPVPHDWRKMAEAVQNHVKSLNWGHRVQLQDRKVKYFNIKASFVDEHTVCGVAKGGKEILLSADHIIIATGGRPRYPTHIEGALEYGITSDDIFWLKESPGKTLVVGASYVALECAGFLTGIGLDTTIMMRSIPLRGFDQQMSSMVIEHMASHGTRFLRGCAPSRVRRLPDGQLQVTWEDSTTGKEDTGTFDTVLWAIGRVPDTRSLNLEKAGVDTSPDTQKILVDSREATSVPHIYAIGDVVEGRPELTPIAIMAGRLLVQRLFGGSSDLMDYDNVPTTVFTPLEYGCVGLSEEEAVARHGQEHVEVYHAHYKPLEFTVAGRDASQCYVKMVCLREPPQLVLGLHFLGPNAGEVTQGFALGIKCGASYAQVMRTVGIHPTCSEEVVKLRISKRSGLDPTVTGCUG

COc1cc(OC)c2c(=O)c(OCCCOc3ccccc3/C=C/C(=O)/C=C/c3ccccn3)c(-c3cc(OC)c(OC)c(OC)c3)oc2c1
IC50 [1]: 1.08 µM | IC50 [2]: 0.56 µM | Activity [3]: Dose-dependent effect | Activity [4]: 15.61% | Activity [5]: 35.47% | Activity [6]: 13.48% | Activity [7]: 35.37% | Activity [8]: 10.44% | Activity [9]: 33.28% | inhibition [10]: inactive | Activity [11]: 75.7% | Activity [12]: 55.4 - 63.7% | Activity [13]: 2.32% | Activity [14]: 97.3% | Activity [15]: 1.74% | Activity [16]: 6.4% | viability at 0.6 µM [17]: 87.7% | Activity [18]: 24.5% | Activity [19]: 8.3% | viability at 0.8 µM [20]: 66.8% | Activity [21]: 7.92 - 24.2% | viability at 1 µM [22]: 50.1 to 59.6% | Activity [23]: 29.8 - 55.2% | Activity [24]: 20.1 - 24.9% | Activity [25]: 0.131 - 1.62% | Activity [26]: 2.13% | Activity [27]: 2.84% | inhibition [28]: Active | Activity [29]: Dose-dependent effect | inhibition [30]: inactive | inhibition [31]: inactive | Activity [32]: inactive
